Assay: Evaluation of acid resistance of allulose disaccharide (residual percentage by HPLC after storage in citrate buffer)
Assay type: physicochemical
Settings: for Residual percentage: 1% (w/v) in 10 mM citrate buffer
Protocol: 1% D1 solution was prepared (in 10 mM citrate buffer) to measure acid resistance thereof. Sucrose that is a disaccharide having a similar structure and D2 that is another allulose disaccharide were used as controls.
The pH of the solution was adjusted to pH 2.0, 4.0, and 6.0 using 10 mM citrate and sodium citrate buffers. The prepared solutions were respectively stored at room temperature ([…]), and purities of remaining substances were identified by HPLC analysis (HPX-87C column, 80° C., 60 min, 20 μl) at 0 hour, 24 hours, 72 hours, and 120 hours. The concentration of each substance was 1% (w/v) and reaction temperature was 40° C.
Those results which show statistically significant difference under the same experimental conditions were indicated by different alphabets.
The measured results with respect to storage time were analyzed using analysis of variance (ANOVA) as statistical analysis and tukey's multiple range test as post hoc analysis, and statistical significance was set to p<0.05.

Row | Residual percentage (pH 2, 40° C., 0 hr) [%] | Residual percentage (pH 2, 40° C., 24 hr) | Residual percentage (pH 2, 40° C., 72 hr) | Residual percentage (pH 2, 40° C., 120 hr) | Residual percentage (pH 4, 40° C., 0 hr) [%] | Residual percentage (pH 4, 40° C., 24 hr) | Residual percentage (pH 4, 40° C., 72 hr) | Residual percentage (pH 4, 40° C., 120 hr) | Residual percentage (pH 6, 40° C., 0 hr) [%] | Residual percentage (pH 6, 40° C., 24 hr) [%] | Residual percentage (pH 6, 40° C., 72 hr) [%] | Residual percentage (pH 6, 40° C., 120 hr) | Residual percentage of D1 relative to that of sucrose (higher than) (pH 2, after 120 hours) | Structure (SMILES) | Acid resistance compared with D2 and sucrose (at pH 6 or less)
1 | 100.0 | 81.2^B % | 51.9^B % | 34.4^B % | 100.0 | 98.1^A % | 95.8^B % | 92.9^B % | 100.0 | 100.0 | 99.9 | 99.58^A* % | – | OC[C@H]1O[C@@](CO)(O[C@H]2O[C@H](CO)[C@@H](O)[C@H](O)[C@H]2O)[C@@H](O)[C@@H]1O [Sucrose, reference compound] | –
2 | 100.0 | 85.9^A % | 58.2^A % | 44.6^A % | 100.0 | 99.0^A % | 98.8^A % | 97.9^A % | 100.0 | 100.0 | 100.0 | 99.96^A* % | about 130% | OCC1(O)O[C@H](CO[C@]2(CO)OC[C@@H](O)[C@@H](O)[C@H]2O)[C@@H](O)[C@H]1O (stereo partly drawn) [D1, (2S,3R,4R,5R)-2-(hydroxymethyl)-2-(((2R,3S,4R)-3,4,5-trihydroxy-5-(hydroxymethyl)tetrahydrofuran-2-yl)methoxy)tetrahydro-2H-pyran-3,4,5-triol] | higher acid resistance than that of D2 and sucrose

Source: US11084805B2, “Compound derived from allulose” (CJ CHEILJEDANG CORPORATION, priority 2019, dated 2021)
